Consider 6 compounds from patent US20100240627A1, “COMPOSITION AND METHODS RELATING TO GLUCOCORTICOID RECEPTOR-ALPHA AND PEROXISOME PROLIFERATOR-ACTIVATED RECEPTORS” (Universiteit Gent, priority 2007, published 2010).

Each structure is given as a SMILES string.

The test system of series [1] is NF-κB-driven gene expression. The experiment in a line: p(IL6κB)350hu.IL6P-luc reporter in transfected HEK293T cells. It counts as cell-based. The conditions noted are these: TNF 2000 IU/ml 8 h. The method, then:
(§1) Cell lysates are assayed for luciferase activities and normalized for β-gal activities. A representative of three independent experiments is shown.

Series [2] has as its system GRE-driven gene expression. The series is described as follows: p(GRE)2-50-luc reporter in transfected HEK293T cells. Type of series: cell-based. The conditions noted are these: 8 h, DEX 1 or 0.1 μM. The method, then: as §1
In series [3] the test system is TNF-induced IL-6 production in L929sA cells. The experiment in a line: TNF-induced IL-6 production, murine IL-6 ELISA. It counts as cell-based. The conditions noted are these: 1 h pre-incubation, TNF 200 IU/ml 24 h, DEX 0.01 μM, GW647 0.25-1 μM, WY 2-10 μM, FIG. 1. As to the method: Murine IL-6 ELISA is performed using a kit from Biosource.
Medium is collected to perform a murine IL-6 ELISA. Protein levels obtained in ng/ml are calculated as % of max TNF response. Results are shown ±SD. **P<0.01, ***P<0.001 in FIG. 1.
In general terms: An ELISA detects its analyte on a solid surface through an enzyme-linked reagent.

The test system of series [4] is GRE-driven gene transcription. The series is described as follows: p(GRE)2-50-luc reporter in HepG2 cells. Type of series: cell-based, human. The conditions noted are these: HepG2 overexpressing PPARα (pSG5PPARα); 8 h.
Description: HepG2 and BWTG3 cells are transiently transfected using Lipofectamine according to the manufacturer's instructions, HEK293T cells using CaPO4. At day −1 40,000-50,000 cells/24-well are seeded. At day 0, medium is replaced by 360 μl of fresh normal medium with 10% serum to the cells. The DNA mix is prepared by dissolving (per 24-well) 400 ng of DNA in 20 μl of TE/CaCl2 solution. The DNA-containing mixture is added dropwise to 20 μl BS/Hepes mixture. All is mixed until a fine precipitate is visible. This precipitate is finally added onto the 360 μl medium. After 8 h, medium is replaced with fresh normal medium with 10% serum and inductions are performed the following day. […]
Luc and β-gal assays are carried out according to instructions of the manufacturer (Promega). Luc activity, expressed in arbitrary light units, is corrected for the protein conc. in the sample by normalization to constitutive β-gal levels. β-gal levels are quantified with a chemiluminescent reporter assay Galacto-Light kit (TROPIX, Bedford, Mass.).
HepG2 cells are transiently transfected with p(GRE)2-50-luc, and pSG5PPARα (black bars) or pSG5 (white bars). […] Promoter activities are expressed as relative induction factor, i.e., the ratio of expression levels of induced versus non-induced conditions.
The subject of the next series is ACO mRNA in mouse liver. The series is described as follows: Liver ACO mRNA in treated mice. It counts as in vivo. The conditions noted are these: DEX 10 mg/kg i.p., FF 200 mg/kg gavage, daily 5 days. From the text: Female C57BL6J mice are used at 8 weeks. Mice are randomized to four groups (six mice/group) and matched for body weight. Animals are killed by cervical dislocation after which thymus and liver are recovered and weighed. Total RNA is extracted from liver as described below. ANOVA is used for all analyses, followed by Scheffe post-hoc tests for treated vs control comparisons. The level of significance for all statistical analyses is set at p<0.05.
GILZ and ACO mRNA expression levels from the liver are quantified via QPCR and normalized for household gene expression. Results from triplicates are shown ±SD. Results are represented as relative expression fold, i.e. with the solvent-treated control value taken as 1.

A further series deals with calvarial cells. The experiment in a line: Ex vivo osteoclastogenesis and osteoblast differentiation of calvarial cells. Type of series: cell-based, mouse. The conditions noted are these: pharmacological DEX concentrations. The method, then:
Glucocorticoid-induced osteoporosis (GIO) has been considered one of the most debilitating side-effects related to long-term GC usage (Berris, Repp et al. Curr Opin Endocrinol Diabetes Obes 14(6): 446-50). The effects of compositions and methods of the present invention on glucocorticoid-induced osteoporosis is determined by analysis of markers of osteoclastogenesis, including cathepsin K, M-CSF, RANKL and OPG. Since it is believed that an increase in bone resorption is worsened by inhibition of new bone formation, thereby contributing to the GC-mediated decrease in bone mineral density, the effect compositions and methods of the present invention on osteoblast differentiation is determined using calvarial cells isolated from 3-5 day old mice.
Alkaline phosphatase staining and Q-PCR are performed for the detection of Collal, Alkp, Runx-2 and Bglap (osteocalcin) expression after 10 days of osteoblast differentiation. Alizarin Red staining is performed to determine extracellular calcium deposition after 20 days of osteoblast differentiation.
Calvarial cells are isolated from 3-5 day old mice (SV 129 background). A piece of the tail is isolated for genotyping. The pups are decapitated with scissors in the laminar flow cabinet, skin and brain are removed and the calvaria transferred into eppendorf tubes containing 1 ml PBS+1% Pen/Strep. The tubes are put on ice until digestion. […]

The test system of another series is TRAP5b. The series is described as follows: Serum TRAP5b ELISA in DBA/1 mice. Type of series: in vivo, mouse. The conditions noted are these: DBA/1 mice serum, daily treatment 8 days. An excerpt:
(§2) Male 8- to 12-wk-old DBA/1 mice are purchased from Janvier and housed following institutional guidelines. All animal procedures are approved by the institutional animal care and ethics committee. […] The experiment is repeated with agonists for PPARα replaced by the respective agonists for PPARγ (rosiglitazone) or PPARβ/δ (L165041). At day 8, murine serum is collected and used for the determination of TRAP5b and osteocalcin levels. The Mouse TRAP™ Assay is purchased from Immunodiagnostic Systems Ltd. The Mouse Osteocalcin EIA kit is purchased from Biomedical Technologies, Inc. All assays are performed according to the manufacturer's guidelines.
(§3) The experiment is repeated with agonists for PPARα replaced by the respective agonists for PPARγ (rosiglitazone) or PPARβ/δ(L165041). A TRAP5b ELISA assay is performed for the detection of differentiated osteoclasts.

Another series deals with osteocalcin. The series is described as follows: Serum osteocalcin in DBA/1 mice. The conditions noted are these: daily treatment 8 days. Type of series: in vivo, mouse.
Source text: as §2, §3

Series [5] has as its system PDK-4 mRNA (PPARα target gene). The experiment in a line: PDK-4 mRNA in primary hepatocytes of WT and PPARα KO mice. Type of series: cell-based, mouse. The conditions noted are these: 24 h, GW9578 500 nM, WY 10 μM. The method, then: Mouse hepatocytes are isolated by collagenase perfusion from livers of wild type and PPARα KO (PPARα−/−) mice essentially using the collagenase method (18), with several modifications. Mouse livers are perfused with Hanks' balanced salt solution (HBSS, Sigma) at a rate of 5 ml/min via cave vein before addition of collagenase Type IV (0.025%, Sigma). Cell viability is assessed by a Trypan Blue exclusion test. […] After overnight incubation, cells are incubated in a fresh William's E medium supplemented with different compounds, DEX and/or PPARα agonists.

The target of a further series is T1, mouse PPARα (Mus musculus, UniProt P23204).
T1 sequence (P23204 1-468): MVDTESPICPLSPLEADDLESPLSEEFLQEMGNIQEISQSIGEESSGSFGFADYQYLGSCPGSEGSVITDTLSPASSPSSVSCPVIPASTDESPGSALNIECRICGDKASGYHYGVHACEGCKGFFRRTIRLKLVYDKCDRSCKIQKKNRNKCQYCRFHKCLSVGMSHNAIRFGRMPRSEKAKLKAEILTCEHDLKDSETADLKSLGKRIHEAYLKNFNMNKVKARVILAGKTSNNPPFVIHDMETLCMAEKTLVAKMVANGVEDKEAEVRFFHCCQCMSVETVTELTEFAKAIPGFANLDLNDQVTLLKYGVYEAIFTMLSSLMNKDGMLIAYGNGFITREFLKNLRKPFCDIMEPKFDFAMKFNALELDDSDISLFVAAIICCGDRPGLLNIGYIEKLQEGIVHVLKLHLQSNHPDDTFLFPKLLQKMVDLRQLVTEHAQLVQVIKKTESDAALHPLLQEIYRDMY
The conditions noted are these: cited from earlier work.

The test system of series [6] is human placental alkaline phosphatase (hPAP) mRNA. The experiment in a line: Semi-quantitative PCR of hPAP mRNA. The conditions noted are these: HepG2 and A549 cells, 8 h; DEX 1 μM, WY 10 μM; co-treatment compared to DEX alone. It counts as cell-based. The method, then: (§4) RNA extraction is performed as described before (12). RNA is isolated from cells by using TRIzol reagent (Invitrogen) according to the manufacturer's instructions. The reverse transcriptase reaction is done by using MLV enzyme (Promega) followed by a PCR reaction with Taq polymerase (Promega) on the obtained cDNA. cDNA is analyzed either by a semi-quantitative PCR using Taq polymerase (Promega) or by real-time PCR with a SYBR Green mastermix (Invitrogen). Primers for QPCR of mIL-6: fwd […] (SEQ ID No. 1) and rev […] (SEQ ID No. 2); for mGILZ: fwd […] (SEQ ID No. […]) and rev […] (SEQ ID No. 4); for hGILZ: fwd […] (SEQ ID No. 5) and rev […] (SEQ ID No. 6); for mG6Pase: fwd […] (SEQ ID No. 7) and rev […] (SEQ ID No. 8); for rMCP-1: fwd […] (SEQ ID No. 9) and rev […] (SEQ ID No. 10); for mMMP-9: […] (SEQ ID No. 11) and rev […] (SEQ ID No. 12). Primers for semi-QPCR of hPLAP: fwd […] (SEQ ID No. 13) and rev […] (SEQ ID No. 14).
A549 or HepG2 cells are treated for eight hours, mRNA is isolated, reverse transcribed and the resulting cDNA is subjected to semi-quantitative PCR analysis with primers to detect GAPDH (loading control) or hPAP in the same sample. […] Treatment with WY alone has no effect on hPAP mRNA expression.

Series [7] deals with Glucocorticoid-induced Leucine Zipper (GILZ) mRNA. The experiment in a line: QPCR of GILZ mRNA in HepG2 cells. Type of series: cell-based, human. The conditions noted are these: HepG2 (and A549) cells, 3 h; co-treatment compared to DEX alone. The method, then: as §4
HepG2 cells and FTO2B cells are incubated with the indicated agents for three hours. mRNA is isolated, reverse transcribed and the resulting cDNA is subjected to SYBR green QPCR with primers to detect G6Pase or Glucocorticoid-induced Leucine Zipper (GILZ). QPCR measurements are performed in triplicate. QPCR results, normalized to expression of household genes, are shown ±SD, in FIGS. 2B and 2C. […]

The next series deals with cathepsin K. The experiment in a line: Cathepsin K expression in MG63b osteosarcoma cells. It counts as cell-based, human. The conditions noted are these: 24 hour, DEX 10^−6M, WY 10 μM.

Description for cathepsin K: Cell culture—Human osteosarcoma cells MG63b and Saos-2 are cultured in Dulbecco Modified Eagle's Medium (DMEM) and McCoy's 5a Medium respectively, supplemented with 10% fetal calf serum (FCS), 100 units/ml penicillin and 0.1 mg/ml streptomycin. RT-PCR—After the appropriate inductions RNA is isolated from the cells by means of the RNeasy mini kit (Qiagen) according to the manufacturer's instructions. The mRNA is reverse transcribed with the verso cDNA kit (ABgene). The obtained cDNA is amplified by a quantitative PCR reaction with iQ Custom SYBR Green Supermix (Biorad). Gene expression of the housekeeping gene hypoxanthine-guanine phosphoribosyltransferase (HPRT) is used for normalization.

For `CCCc1c(OCCCOc2ccc(OCC(=O)O)cc2)ccc(C(C)=O)c1O` [L165041], the “NF-κB-driven gene expression (luc)” value in [1] (HEK293T with pSVhGRα and pSG5PPARδ, L165041, FIG. 12B) was “efficiently inhibit NF-κB-driven gene expression”. Moreover, the “GRE-driven gene expression (luc)” value in series [2] (HEK293T with pSVhGRα and pSG5PPARδ, L165041 1 μM, FIG. 13B) is “able to antagonize the GRE-driven gene expression”.

With `CC(C)(Sc1ccc(CCN(CCCCC2CCCCC2)C(=O)NC2CCCCC2)cc1)C(=O)O` [GW647, 2-(4-(2-(1-Cyclohexanebutyl-3-cyclohexylureido)ethyl)phenylthio)-2-methylpropionic acid], the “TNF-induced IL-6 production” value in series [3] is recorded as “inhibited TNF-induced IL-6 production in a dose-responsive manner”. Further, in series [4], the “DEX-induced luciferase activity of p(GRE)2-50-luc” value is listed as “further enhanced”. Also, the “NF-κB-driven gene expression (luc)” value in [1] (HEK293T with pSVhGRα and pSG5PPARα, GW647 0.5 μM, FIG. 12A) is on record as “inhibits NF-κB-driven gene expression”. Besides, in series [2] (HEK293T with pSVhGRα and pSG5PPARα, GW647 0.5 μM, FIG. 13A), the “GRE-driven gene expression (luc)” value is reported as “able to antagonize GRE-driven gene expression”.

For `C[C@@H]1C[C@H]2[C@@H]3CCC4=CC(=O)C=C[C@]4(C)[C@@]3(F)[C@@H](O)C[C@]2(C)[C@@]1(O)C(=O)CO` [DEX, dexamethasone], the “ACO mRNA levels in liver” value in the series on ACO mRNA in mouse liver is “no effect”. For the same compound, in the series on calvarial cells, the osteoclastogenesis entry was “inhibit osteoclastogenesis”. Moreover, in the series on TRAP5b, the TRAP5b levels entry is recorded as “upregulates TRAP5b levels after 8 days”. Also, the “amount of osteocalcin in murine serum” value in the series with osteocalcin is reported as “significantly lowers”.

As usually defined, the EC50 is the concentration that produces a half-maximal response. Turning to `CCCCCCCN(CCc1ccc(SC(C)(C)C(=O)O)cc1)C(=O)Nc1ccc(F)cc1F` [GW9578], the “PDK-4 mRNA levels” value in series [5] was “significant increase in PDK-4 mRNA levels only in WT cells”. In addition, the EC50 at mouse PPARα was 5 nM.

In the case of `Cc1cccc(Nc2cc(Cl)nc(SCC(=O)O)n2)c1C` [WY, [[4-chloro-6-[(2,3-dimethylphenyl)amino]-2-pyrimidinyl]thio]-acetic acid], the “TNF-induced IL-6 production” value in series [3] was “inhibited TNF-induced IL-6 production in a dose-responsive manner”. Also, the “hPAP mRNA expression” value in series [6] is reported as “no effect”. Further, the “GILZ mRNA expression” value in series [7] was “no effect”. Besides, in series [4], the “DEX-induced luciferase activity of p(GRE)2-50-luc” value was “confirmed”. The “PDK-4 mRNA levels” value in series [5] is “significant increase in PDK-4 mRNA levels only in WT cells”. Moreover, the “cathepsin K expression” value in the series on cathepsin K is listed as “prevent or reverse the upregulation”.

Turning to `O=S(=O)(c1ccccc1)N(CC(F)(F)F)c1ccc(C(O)(C(F)(F)F)C(F)(F)F)cc1` [T0901317], the “NF-κB-driven gene expression (luc)” value in series [1] (HEK293T with pSVhGRα and LXR plasmid, T0901317 1 μM, FIG. 12C) is reported as “efficiently inhibit NF-κB-driven gene expression”. Further, the “GRE-driven gene expression (luc)” value in series [2] (HEK293T with pSVhGRα and pCMX-LXR, T0901317 1 μM, FIG. 13C) is “not able to antagonize GRE-driven gene expression”.
